Experiments:
Assay type in all cases: cell-based, Chinese Hamster
Cell Line 1 [1] = assay: N-glycan oligosaccharide profiling, Cell Line 1 in 3 L laboratory-scale bioreactors; conditions: 50 mM supplement vs control
Description: (§1) Purified antibodies subjected to additional analytical characterization were purified using MabSelect™ Protein A (GE Healthcare, Piscataway, N.J.) using a low pH, step elution gradient, followed by buffer exchange using Corning Lifesciences (Tewksbury, Mass.) Spin Concentrator X UF columns according to the manufacturers' recommended procedures.
(§2) Approximately 200 μg of Protein A purified samples from Cell Lines 1 and 2 were treated with N-glycanase at 37° C. overnight to remove the N-glycans from the protein. The protein was precipitated and the supernatant was taken for subsequent chemical derivatization of the reducing end of the released glycans with 2-aminobenzamide (2-AB) dye. Following the derivatization step, the excess label was removed using clean up cartridges and the samples were analyzed using normal phase HPLC with fluorescent detection. Mobile phase A was 100% acetonitrile and mobile phase B was 50 mM ammonium formate pH 4.4. The glycans were eluted from a polyamide column (Prozyme, Hayward, Calif.) using a shallow gradient. The labeled glycans were detected using a fluorescence detector with an excitation wavelength of 330 nm and an emission wavelength of 420 nm.
3 L scale-down model bioreactors were utilized to verify the impact of select sugars on the resulting protein glycosylation profiles. The concentration of the sucrose and tagatose was chosen to minimize any potential adverse impact on cell growth and productivity, but still facilitate a measurable modulation of the glycosylation profile. Cell culture process performance indicators were monitored and measured throughout the respective cultures. Viable cell density, cell viability, lactate, pCO2, osmolality, harvest titer, and harvest N-glycan oligosaccharide data were measured and reported.
3 L scale laboratory bioreactors were utilized to verify the impact of sucrose, tagatose, or fructose on protein glycosylation profiles. Concentrations of the sugars were chosen to minimize any potential adverse impacts on cell growth and productivity, but still facilitate a measurable impact on the glycoform profile. Cell culture process performance indicators were monitored and measured throughout the study. Viable cell density, cell viability, lactate, pCO2, osmolality, harvest titer, and harvest N-glycan oligosaccharide data was measured and reported.

Cell Line 1 [2] = assay: N-glycan oligosaccharide profiling, Cell Line 1 (Antibody 1) shake flasks (Example 2)
Description: Two recombinant Chinese Hamster Ovary (CHO) cell lines expressing two different recombinant glycoproteins were evaluated in two different cultures vessels (shaker flasks and 3 L laboratory scale bioreactors). Cell Line 1 expressed Antibody 1, Cell Line 2 expressed Dual Variable Domain Immunoglobulin 1 (DVD 1) and Cell Line 3 expressed Antibody 2. Antibodies 1 and 2 are IgG1 proteins, and DVD 1 is an immunoglobulin with two variable domains as documented previously (Wu C. et al., (2007) Nat. Biotechnol 25(11):1290-1297). All cell lines were of CHO DUX-B11 origin based on a dhfr (dihydrofolate reductase) expression system. All cell lines were cultured in the same chemically defined basal media. Cell lines 1 and 2 were fed with the same chemically-defined feed media, but Cell Line 1 was fed media that was formulated at a 50% higher concentration. Each of the respective media were supplemented with either sucrose or tagatose to evaluate their potential impact on the resulting N-glycan oligosaccharide profile. All sugars were purchased from Sigma-Aldrich (St. Louis, Mo.). In preparation of the cultures, the cell lines were serially expanded through separate seed train inoculums to generate enough cells for inoculation.
as §1, §2
Experimental results are expressed as mean±SD for those results generated from at least three independent cultures. Experimental results are expressed as the measured value for those results generated from less than three independent cultures. Results were evaluated for statistical significance through 2-sided t-tests, with a requirement of p<0.05 relative to the unsupplemented control conditions.
Cell Line 1 was cultured in shake flasks in fedbatch mode after an abbreviated seed train. Sucrose and tagatose were supplemented into chemically-defined basal and feed media at concentrations of 1, 10, 30, 50, and 70 mM, and compared to unsupplemented control conditions. The viable cell density (VCD), viability, and harvest titer results are shown in FIGS. 13A-13C for the sucrose supplemented cultures and FIGS. 14A-14C for the tagatose supplemented cultures.

Cell Line 1 [3] = assay: Shake flask fedbatch culture of Cell Line 1, cell culture performance (Example 1)
Description: (§3) Two recombinant Chinese Hamster Ovary (CHO) cell lines expressing two different humanized monoclonal antibodies (Antibody 1, Antibody 2) were evaluated in two different culture vessels (shaker flasks and laboratory scale bioreactors). Both cell lines were of CHO DUX-B11 origin based on a dhfr (dihydrofolate reductase) expression system. Both cell lines were cultured in the same chemically defined basal media (CDBM), with Cell Line 1 also utilizing a chemically-defined feed media (CDFM). Each of the respective media were supplemented with selected monosaccharides and oligosaccharides to evaluate their potential impact on the resulting N-glycan oligosaccharide profile. In preparing the cultures, the cell lines were serially expanded through separate seed train inoculums to generate enough cells for inoculation.
Viable cell density (VCD) and cell viability values were measured through trypan blue exclusion via Cedex automated cell counters (Roche Applied Science, Indianapolis, Ind.), glucose and lactate values were measured with a ABL-805 (Radiometer Medical, Denmark) blood gas analyzer. Offline pH, dissolved oxygen (DO), and pCO2 measurements were performed with a ABL-805 (Radiometer Medical, Denmark) blood gas analyzer. Osmolality was measured on a Multi-Osmette 2430 osmometer (Precision Systems, Natick, Mass.).
Antibody titers were measured from crude cell culture harvests on a Poros A™ (Life Technologies, Carlsbad, Calif.) affinity column using an Agilent (Santa Clara, Calif.) 1200 Series HPLC, or equivalent, operating with a low pH, step elution gradient with detection at 280 nm. Absolute concentrations were assigned with respect to reference standard calibration curves.
(§4) Cell Line 1 was cultured in shake flasks in fedbatch mode after an abbreviated seed train. Sucrose and tagatose were supplemented into chemically-defined basal and feed media at concentrations of 30, 50, and 70 mM, and compared to an unsupplemented control condition. The viable cell density (VCD), viability, and harvest titer results are shown in FIGS. 3A-3C and FIGS. 5A-5C for the sucrose, and tagatose conditions, respectively. Both sugars facilitated a slight decrease in VCD, with the higher concentrations also supporting the lowest peak VCD. […] As such, the upper threshold of sucrose or tagatose concentration should not be exceeded.

Cell Line 1 [4] = assay: N-glycan oligosaccharide profiling, Cell Line 1 shake flasks (Example 1)
Description: as §3, §1, §2, §4

[5] = 70 mM supplement, absolute % change vs control

## OC[C@H]1O[C@@](CO)(O[C@H]2O[C@H](CO)[C@@H](O)[C@H](O)[C@H]2O)[C@@H](O)[C@@H]1O [sucrose]
Cell Line 1 [1]
  Man 5 increase: 16%
  Man 6 increase: 5%
  Man 7 increase: 3%
  decrease in NA1F: 3%
  decrease in NGA2F species: 29%
  increase in NA1F-GlcNAc: 1%
  increase in NGA2F-GlcNAc: 7%
  increase in overall mannosylation: 24%
  overall decrease in fucosylation: 24%
Cell Line 1 [2]; 70 mM supplement vs control
  cumulative increase in overall mannosylated N-glycans: 37%
  decrease in NA1F species: 1%
  drop in NGA2F species: 44%
  increase in Man 5 species: 19%
  increase in Man 6 species: 10%
  increase in Man 7 species: 6%
  increase in Man 8 species: 2%
  increase in NGA2F-GlcNAc species: 8%
  overall decrease in the fucosylation level: 37%
Cell Line 1 [2]; 10, 30, 50 and 70 mM
  overall N-glycan core fucosylation: decreased in a statistically significant manner
Cell Line 1 [3]; 30 mM supplement vs control
  Harvest titer (adverse impact): did not adversely impact titer
Cell Line 1 [3]; 50 mM supplement vs control
  Harvest titer (adverse impact): did not adversely impact titer
Cell Line 1 [3]; 70 mM supplement vs control
  Harvest titer (adverse impact): reduce the harvest titer significantly
  cell viability: decrease in cell viability that was larger, and earlier in the culture
Cell Line 1 [4]; 70 mM supplement vs control
  cumulative increase in overall mannosylated N-glycans: 43%
  decrease in NGA2F species: 51%
  increase in NGA2F-GlcNAc species: 7%
  overall decrease in fucosylation level: 44%
Cell Line 1 [4]; [5]
  increase in Man 5 species: 24%
  increase in Man 6 species: 12%
  increase in Man 7 species: 7%

## O=C(CO)[C@@H](O)[C@@H](O)[C@H](O)CO [tagatose]
Cell Line 1 [1]
  Man 5 increase: 7%
  Man 6 increase: 2%
  Man 7 increase: 1%
  decrease in NA1F: 3%
  decrease in NGA2F species: 15%
  increase in NA1F-GlcNAc: 1%
  increase in NGA2F-GlcNAc: 6%
  increase in overall mannosylation: 10%
  overall decrease in fucosylation: 11%
Cell Line 1 [2]; 70 mM supplement vs control
  cumulative increase in overall mannosylated N-glycans: 15%
  drop in NGA2F species: 23%
  increase in Man 5 species: 8%
  increase in Man 6 species: 4%
  increase in Man 7 species: 2%
  increase in Man 8 species: 1%
  increase in NGA2F-GlcNAc species: 8%
  overall decrease in the fucosylation level: 15%
Cell Line 1 [2]; 1, 10 and 30 mM
  N-glycan profiles compared to the control culture: not practically different compared to the control culture
Cell Line 1 [3]; 30 mM supplement vs control
  Harvest titer (adverse impact): did not adversely impact harvest titer
Cell Line 1 [3]; 50 mM supplement vs control
  Harvest titer (adverse impact): did
Cell Line 1 [3]; 70 mM supplement vs control
  Harvest titer (adverse impact): did
Cell Line 1 [4]; 70 mM supplement vs control
  cumulative increase in overall mannosylated N-glycans: 20%
  decrease in NGA2F species: 30%
  overall decrease in fucosylation level: 23%
Cell Line 1 [4]; [5]
  increase in Man 5 species: ≤ 10%
  increase in Man 6 species: 6%
  increase in Man 7 species: 3%
  increase in Man 8 species: 1%
